Experimental findings from patent US8324245B2, “Quinoline derivative and quinazoline derivative inhibiting self-phosphorylation of hepatocytus proliferator receptor, and medicinal composition containing the same” (Kyowa Hakko Kirin Co., Ltd., priority 2001, dated 2012) are described below.

Structures are written as SMILES.

The assay deals with T1, met (HGF receptor) in human gastric cancer cells MKN45 (Homo sapiens, UniProt P08581).
T1 construct: endogenous in cells; host or cells: MKN45 human gastric cancer cells
T1 sequence (P08581 25-1390): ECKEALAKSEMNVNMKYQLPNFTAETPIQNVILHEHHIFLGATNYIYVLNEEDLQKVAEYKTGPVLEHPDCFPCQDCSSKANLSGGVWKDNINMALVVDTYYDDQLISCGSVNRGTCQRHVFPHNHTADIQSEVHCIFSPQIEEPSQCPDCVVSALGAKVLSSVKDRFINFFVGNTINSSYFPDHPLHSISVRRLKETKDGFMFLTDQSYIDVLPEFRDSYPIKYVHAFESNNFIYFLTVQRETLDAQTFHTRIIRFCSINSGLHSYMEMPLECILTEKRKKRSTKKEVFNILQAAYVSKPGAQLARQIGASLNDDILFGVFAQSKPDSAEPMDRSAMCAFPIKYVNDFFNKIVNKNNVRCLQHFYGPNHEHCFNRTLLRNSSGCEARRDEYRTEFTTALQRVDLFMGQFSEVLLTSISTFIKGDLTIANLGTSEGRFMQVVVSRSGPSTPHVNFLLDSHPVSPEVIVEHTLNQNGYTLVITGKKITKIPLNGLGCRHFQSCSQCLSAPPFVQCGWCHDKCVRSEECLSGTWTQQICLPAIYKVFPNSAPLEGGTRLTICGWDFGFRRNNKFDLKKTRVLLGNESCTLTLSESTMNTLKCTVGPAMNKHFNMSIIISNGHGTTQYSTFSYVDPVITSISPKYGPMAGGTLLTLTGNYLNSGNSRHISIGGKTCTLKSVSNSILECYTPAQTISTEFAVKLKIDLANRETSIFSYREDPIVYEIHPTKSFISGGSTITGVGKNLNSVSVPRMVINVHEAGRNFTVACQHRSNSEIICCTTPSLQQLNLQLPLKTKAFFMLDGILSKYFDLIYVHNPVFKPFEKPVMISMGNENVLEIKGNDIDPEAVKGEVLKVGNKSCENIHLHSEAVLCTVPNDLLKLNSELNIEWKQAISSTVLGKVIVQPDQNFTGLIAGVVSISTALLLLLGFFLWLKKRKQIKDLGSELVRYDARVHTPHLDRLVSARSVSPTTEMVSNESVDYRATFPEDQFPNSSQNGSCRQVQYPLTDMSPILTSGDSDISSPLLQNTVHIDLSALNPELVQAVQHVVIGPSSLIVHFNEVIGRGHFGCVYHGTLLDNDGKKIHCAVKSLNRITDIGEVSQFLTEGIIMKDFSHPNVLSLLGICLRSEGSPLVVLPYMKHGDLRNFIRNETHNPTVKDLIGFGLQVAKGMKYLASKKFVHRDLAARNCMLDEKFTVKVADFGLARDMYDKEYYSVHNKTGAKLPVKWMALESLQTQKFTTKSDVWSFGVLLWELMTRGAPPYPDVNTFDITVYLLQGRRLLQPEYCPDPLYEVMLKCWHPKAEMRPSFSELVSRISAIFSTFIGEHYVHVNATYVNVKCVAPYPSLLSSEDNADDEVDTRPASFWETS
In words: Inhibitory activity against met-autophosphorylation using ELISA method (2), MKN45 cells, HGF-independent. The format is cell-based. The protocol: Cells were cultured with RPMI medium containing 0.1% fetal calf serum in 96-well flat-bottom plate in an amount of 3×10^4 per well, and were incubated at 37° C. overnight. The medium was then replaced by a fresh RPMI medium containing 0.1% fetal calf serum. A solution of the test compound in dimethyl sulfoxide was added to each well, and the incuvation was continued at 37° C. for additional one hr. The medium was removed, the cells were washed with phosphate buffered saline (pH 7.4), and 50 μl of a lysis buffer (20 mM HEPES (pH 7.4), 150 mM NaCl, 0.2% Triton X-100, 10% glycerol, 5 mM sodium orthovanadylate, 5 mM disodium ethylenediaminetetraacetate, and 2 mM Na4P2O7) was then added thereto. The mixture was shaken at 4° C. for 2 hr to prepare a cell extract.
Separately, phosphate buffered saline (50 μl, pH 7.4) containing 5 μg/ml of anti-phospho-tyrosine antibody (PY20; purchased from Transduction Laboratories) was added to a microplate for ELISA (Maxisorp; purchased from NUNC), followed by gentle agitation at 4° C. overnight to coat the surface of the wells with the antibody. After washing of the plate, 300 μl of a blocking solution was added, followed by gentle agitation at room temperature for 2 hr to perform blocking. After washing, the whole quantity of the cell extract was transferred to the wells, and the plate was then allowed to stand at 4° C. overnight. After washing, an anti-HGF receptor antibody (h-Met (C-12), purchased from Santa Cruz Biotechnology) was allowed to react at room temperature for one hr, and, after washing, a peroxidase-labeled anti-rabbit Ig antibody (purchased from Amersham) was allowed to react at room temperature for one hr. After washing, a chromophoric substrate for peroxidase (purchased from Sumitomo Bakelite Co., Ltd.) was added thereto to initiate a reaction. After a suitable level of color development, a reaction termination solution was added to stop the reaction, and the absorbance at 450 nm was measured with a microplate reader.
(An ELISA detects its analyte on a solid surface through an enzyme-linked reagent.)
The term IC50 denotes the midpoint of a concentration-inhibition curve. Higher therefore signals a need for much substance. `COc1cc2nccc(Oc3ccc(NC(=O)NC(=O)Cc4c(F)cccc4F)cc3F)c2cc1OC` [Example 135, 1-[2-(2,6-difluorophenyl)acetyl]-3-[4-(6,7-dimethoxyquinolin-4-yloxy)-3-fluorophenyl]urea]: the half-maximal inhibitory concentration (IC50) was determined as 226 nM.

In the case of `COc1cc2nccc(Oc3ccc(NC(=S)NC(=O)Cc4ccccc4Cl)cc3F)c2cc1OC` [Example 87, 1-[2-(2-chlorophenyl)acetyl]-3-[4-(6,7-dimethoxyquinolin-4-yloxy)-3-fluorophenyl]thiourea], it took 198 nM to reach half-maximal inhibition (IC50).

As for `COc1cc2nccc(Oc3ccc(NC(=O)NC(=O)Nc4cccc5ncccc45)cc3)c2cc1OC` [Example 262, N-(5-quinolyl)-({[4-(6,7-dimethoxyquinolin-4-yloxy)anilino]carbonyl}amino)methanamide], inhibition was half-maximal at 269 nM (IC50).

`COc1cc2nccc(Oc3ccc(NC(=O)NC(=O)Nc4ccccc4CCO)cc3)c2cc1OC` [Example 267, N-[2-(2-hydroxyethyl)phenyl]-({[4-(6,7-dimethoxyquinolin-4-yloxy)anilino]carbonyl}amino)-methanamide] came in with an IC50 of 109 nM.

Compound `COc1cc2nccc(Oc3ccc(NC(=S)NC(=O)Cc4c(Cl)cccc4Cl)c(F)c3)c2cc1OC` [Example 208, 1-[2-(2,6-dichlorophenyl)acetyl]-3-[4-(6,7-dimethoxyquinolin-4-yloxy)-2-fluorophenyl]thiourea] had an IC50 of 258 nM.

The compound `COc1cc2nccc(Oc3ccc(NC(=O)NC(=O)Nc4ccccc4Oc4ccccc4)cc3)c2cc1OC` [Example 255, N-(2-phenoxyphenyl)-({[4-(6,7-dimethoxy-quinolin-4-yloxy)anilino]carbonyl}amino)methanamide] showed a concentration for half-maximal inhibition (IC50) of 260 nM.

As for `COc1cc2c(Oc3ccc(NC(=O)NC(=O)Cc4ccc(F)cc4)cc3F)ccnc2cc1OCCCCN1CCOCC1` [Example 41, 1-{3-fluoro-4-[6-methoxy-7-(4-morpholin-4-yl-butoxy)quinolin-4-yloxy]phenyl}-3-[2-(4-fluorophenyl)-acetyl]urea], it took 281 nM to reach half-maximal inhibition (IC50).

Consider `COc1cc2nccc(Oc3ccc(NC(=O)NC(=O)Nc4ccc5c(c4)CCC5)cc3)c2cc1OC` [Example 243, N-(2,3-dihydro-1H-5-indenyl)-({[4-(6,7-dimethoxyquinolin-4-yloxy)anilino]carbonyl}amino)-methanamide], for which the half-maximal inhibitory concentration (IC50) came out at 3010 nM.

The compound `COc1cc2nccc(Oc3ccc(NC(=S)NC(=O)Cc4ccc(F)cc4)c(F)c3)c2cc1OC` [Example 72, 1-[4-(6,7-dimethoxyquinolin-4-yloxy)-2-fluoro-phenyl]-3-[2-(4-fluorophenyl)acetyl]thiourea] came in with an IC50 of 27.9 nM.

The compound `COc1cc2nccc(Oc3ccc(NC(=O)CC(=O)Nc4ccc(F)cc4F)c(Cl)c3)c2cc1OC` [Example 222, N-[2-chloro-4-(6,7-dimethoxyquinolin-4-yloxy)phenyl]-N′-(2,4-difluorophenyl)malonamide] had a 50% inhibitory concentration (IC50) of 201 nM.

Turning to `COc1cc2nccc(Oc3ccc(NC(=O)NC(=O)Nc4ccc(Cl)cc4C)cc3)c2cc1OC` [Example 242, N-(4-chloro-2-methylphenyl)-({[4-(6,7-dimethoxyquinolin-4-yloxy)anilino]carbonyl}amino)-methanamide], the IC50 stood at 851 nM.

Compound `COc1cc2nccc(Oc3ccc(NC(=O)NC(=O)Cc4ccccc4C(F)(F)F)cc3F)c2cc1OC` [Example 137, 1-[4-(6,7-dimethoxyquinolin-4-yloxy)-3-fluorophenyl]-3-[2-(2-trifluoromethylphenyl)acetyl]urea] yielded a half-inhibitory concentration (IC50) of 271 nM.

As to `COc1cc2c(Oc3ccc(NC(=O)NC(=O)Cc4ccc(F)cc4)c(F)c3)ccnc2cc1OCCCN1CCN(C)CC1` [Example 51, 1-(2-fluoro-4-{6-methoxy-7-[3-(4-methyl-piperazin-1-yl)-propoxy]quinolin-4-yloxy}phenyl)-3-[2-(4-fluorophenyl)acetyl]urea], the IC50 is 203 nM.

On to `COc1cc2nccc(Oc3ccc(NC(=S)NC(=O)c4ccc(C)s4)cc3)c2cc1OC` [Example 160, 1-[4-(6,7-dimethoxyquinolin-4-yloxy)phenyl]-3-(5-methylthiophen-2-carbonyl)thiourea], for which the half-maximal inhibitory concentration (IC50) worked out at 1630 nM.
